How the values were obtained:
Type in all cases: cell-based
[1] = system: Donor left ventricular slices; test: Optical mapping of acute drug response in donor human left ventricular slices; details: donor left ventricular slices paced at 1 Hz; β-adrenergic stimulation with isoproterenol (100 nM); ±S.D.; baseline 0.67±0.03
Procedure: After arrival, an approximately one-inch cube of left ventricular tissue or right atrial tissue was cut in cardioplegic solution. Left ventricular tissue was taken from a region close to left anterior descending artery and circumflex artery. Atrial tissue was taken from crista terminalis below sinoatrial node region. Premade 4% agarose gel cooled at 4° C. was glued on to the tissue holder of a high precision vibrating microtome (7000 smz-2, Campden Instruments Ltd. UK). The tissue block was then mounted endocardium up on the agarose. […] Slices were cut tangential to the endocardium. […]
(§1) Ventricular slices were electrophysiologically studied with optical mapping technique. […] Transmembrane potential (Vm) was measured using di4-ANEEPS and RH237 (Life Technologies). Intracellular calcium was measured using Rhod-2AM (Life Technologies). […]
(§2) Activation map was plotted via calculating activation time points at 50% of action potential upstroke amplitude. Action potential and calcium transient duration was calculated at 80% repolarization/relaxation. When slices were field-paced, conduction velocity could not be quantified via traditional longitudinal and transverse direction. During point pacing conduction velocity was calculated using a semi-automated Matlab function ORCA. Effective refractory period was measured using S1-S1 pacing protocol until 1:1 capture was lost. […]

[2] = system: failing slices (left ventricular free wall of failing hearts); test: Optical mapping of acute drug response in failing human heart slices; details: isoproterenol, baseline 0.47±0.008
Procedure: Adult human hearts were procured either as failing human hearts from Barnes-Jewish Hospital or donor human hearts from Mid-America transplant services. Explanted hearts were cardioplegically arrested via high potassium solution (in mmol/L: NaCl 110, CaCl2 1.2, KCl 16, MgCl2 16, NaHCO3 10) and were cooled to approximately 4° C. in the operating room following aortic cross-clamp. Failing hearts were perfused through both coronaries, while donor hearts were perfused systemically prior to removal from body. The heart was maintained at this low temperature to preserve tissue during the 15-20 minute transportation time from the operating room to the research laboratory.
as §1
as §2, with “ORCA.” for “ORCA. Effective refractory period was measured using S1-S1 pacing protocol until 1:1 capture was lost.”

[3] = system: human ventricular slices (α1-adrenergic receptor stimulation); test: Chronic drug model: acute versus chronic phenylephrine in cultured human ventricular slices, optical mapping; details: for effect on AP duration (APD): 1 Hz (60 BPM) pacing
Procedure: Non-failing donor hearts that were rejected for transplantation were cardioplegically arrested and cooled in the operating room following the same procedure accepted for heart transplantation. Cardiac tissue that was promptly delivered to the research laboratory, where it was sliced tangential to the endocardium using a high precision (1 μm) vibrating microtome, transferred to a custom-designed incubation apparatus, and cultured at a liquid-air interface in 6-well culture plates using Transwell inserts. Slices were cultured in M-199 supplemented with 1×ITS (Insulin, Transferrin, Selenium), 10 mM 2,3-butanedione monoxime, and 2% penicillin-streptomycin in a 37° C. incubator with humidified air with 5% CO2. Culture medium was changed daily. Vital tissue slices from adult myocardium prepared in this manner have previously been cultured for up to 28 days with high cellular viability and maintenance of expression of the major ion channels and action potential characteristics.
Slices were cultured in medium 199 supplemented with 2% penicillin-streptomycin, 1×ITS (Insulin, Transferrin, Selenium) liquid media supplement, and 10 mM 2,3-butanedione monoxime. Slices were individually washed in sterile PBS solution 6 times before placing in culture. Sterile forceps were used to handle slices at all time. […]
After a 24 hour culture period, slices' electrophysiology was measured with optical mapping to examine potential functional changes occurred during culture. […]
Utilizing cultured slices and adult dosage of phenylephrine, a widely used selective α1-adrenergic receptor agonist, a model to study chronic drug effects in human cardiac slices was developed. Slice electrophysiology was first acutely measured using optical mapping after application of 3 μM phenylephrine. […]
Slices were cultured in a tissue incubator for 24 hours. Control cultured slices were measured before and after phenylephrine application similar to acute slices, slices cultured in drug media were measured separately. […] Only transverse conduction velocity could be measured accurately due to the small size of the tissue.
Activation map was plotted via calculating activation time points at 50% of action potential upstroke amplitude. Action potential and calcium transient duration was calculated at 80% repolarization/relaxation. When slices were field-paced, conduction velocity could not be quantified via traditional longitudinal and transverse direction. During point pacing conduction velocity was calculated using a semi-automated Matlab function ORCA. Effective refractory period was measured using S1-S1 pacing protocol until 1:1 capture was lost. Action potential and calcium transient were recorded at cycle lengths from 2000 ms to 200 ms.

Structure (SMILES) | conduction velocity (CV) [1] [m/s] | conduction velocity (CV) [2] [m/s] | effect on AP restitution curve ([3]; acute (15 minutes) 3 μM, at baseline as well as after one day in culture) | effect on AP duration (APD) ([3]; acute treatment at baseline and after one day in culture) | effect on AP restitution curve ([3]; chronic (24 hours) 3 μM) | effect on AP duration (APD) ([3]; chronic treatment (24 hours))
CC(C)NCC(O)c1ccc(O)c(O)c1 (stereo not drawn) [isoproterenol] | 0.84±0.03 | 0.54±0.006 | – | – | – | –
CNC[C@H](O)c1cccc(O)c1 [phenylephrine] | – | – | shifted the AP restitution curve upwards significantly | APD lengthening | shifted the AP restitution curve downwards | APD shortening
